In publication PMC8534003, “The Chemokine-Based Peptide, CXCL9(74-103), Inhibits Angiogenesis by Blocking Heparan Sulfate Proteoglycan-Mediated Signaling of Multiple Endothelial Growth Factors” (Cancers, 2021):

What was measured:
[1] = system: heparan sulfate (HS) / VEGF165; experiment: ELISA-like GAG binding assay, competition with VEGF165 for HS binding; design: species or system human; settings: HS 25 µg/mL, pH 7.2, 37 °C, 2 h, n = 5
Description: The ability of the CXCL9-derived peptides to compete with VEGF165 for HS binding was assessed in an ELISA-like GAG binding assay. First, the GAG binding plates (Galen Laboratory Supplies, North Haven, CT, USA) were coated with 25 µg/mL HS (Iduron, Alderley Edge, UK) in standard assay buffer (SAB) [100 mM NaCl, 50 mM sodium acetate, 0.2% (v/v) Tween® 20 in ultrapure water, pH 7.2] at room temperature overnight. The plates were washed with SAB and blocked with blocking buffer [SAB supplemented with 0.2% (w/v) gelatin] at 37 °C for 1 h to prevent nonspecific binding. Then, dilutions of VEGF165 and the peptides, CXCL9(74-103) or CXCL9(86-103), were added and allowed to interact at 37 °C for 2 h. Unbound material was removed through washing and biotinylated polyclonal goat anti-human VEGF165 antibody (PeproTech) in blocking buffer was added to interact with HS-bound VEGF165 at 37 °C for 1 h. Following additional washing steps, detection was performed with streptavidin-horseradish peroxidase (HRP) (R&D Systems) in blocking buffer at 37 °C for 30 min and conversion of 3,3’,5,5’-tetramethylbenzidine (TMB) to a colorimetric signal in the presence of 0.015% (v/v) H2O2. The reaction was stopped by the addition of H2SO4 and the absorbance was measured at 450 nm. All incubation steps were performed in the dark.

[2] = system: human microvascular endothelial cells (HMVECs); experiment: xCELLigence adhesion assay; assay type: cell-based; settings: VEGF165 50 ng/mL, peptide 3 µM, 1 h, gelatin coat; n = 2–6
Description: The wells of an E-plate (ACEA Biosciences, Inc.) were washed and coated with 0.1% (v/v) gelatin in phosphate-buffered saline (PBS) at 37 °C for 1 h. Following a washing step, wells were incubated with 0.1% (v/v) bovine serum albumin (BSA) in PBS at 37 °C for 1 h. After washing, 50 µL basal MCDB131 medium was added and the plate was allowed to equilibrate at 37 °C. HMVECs were harvested and seeded at 4 × 10^4 cells/well together with 50 ng/mL VEGF165 with or without 0.03, 0.3 or 3 µM of CXCL9(74-103) or 3 µM of CXCL9(86-103) in 100 µL control medium (vide supra). Real-time changes in electrical impedance depicted as cell indices, as measure for cell adhesion and spreading, were analyzed using the xCELLigence® RTCA DP System. The adhesion of HMVECs was analyzed 1 h after seeding.

[3] = system: human microvascular endothelial cells (HMVECs); experiment: Endothelial cell proliferation assay (MTT or ATP lite); assay type: cell-based; settings: peptide 3 µM, 3 to 4 days, HMVECs, 1% FCS, mean ± SEM, n ≥ 4
Description: The ability of the CXCL9-derived peptides to inhibit growth factor-induced proliferation of endothelial cells was assessed. HMVECs were seeded at 5 × 10^3 cells/well in EBM™-2 medium containing 1% (v/v) FCS (proliferation medium). After settling of the cells, they were stimulated with EGF, VEGF165 (both 5 ng/mL) or FGF-2 (3 ng/mL) as a single stimulus or in combination with CXCL9(86-103) or CXCL9(74-103) at 0.3 or 3 µM in proliferation medium or left untreated. HMVECs were also treated with 0.3 or 3 µM of CXCL9(74-103) or 3 µM of CXCL9(86-103) alone to assess the effect of CXCL9-derived peptide treatment on spontaneous proliferation. After 3 to 4 days, a 3-(4,5-dimethylthiazol-2-yl)-2,5-diphenyl tetrazolium bromide (MTT) or ATP lite assay was performed. The ATP lite assay was performed according to the manufacturer’s instructions (Perkin Elmer, Waltham, MA). When MTT was used as substrate, the medium was replaced with 200 µL of MTT solution (RPMI without phenol red containing 0.4 g/L MTT) and the cells were incubated at 37 °C and 5% CO2 in the dark for 4 hours. Then, the MTT solution was discarded and the formed formazan crystals were dissolved in 200 µL acidic propanol [0.04 M HCl, 0.1% (v/v) NP-40 in isopropanol] under continuous shaking in the dark for 10 min. The optical densities were measured at 570 nm and 630 nm (reference wavelength).

[4] = reference not given at the value; read-out: KD, heparin binding; cited from earlier work
Description: In our present study, we wanted to explore the potential of CXCL9(74-103), a high affinity GAG-binding peptide, to interfere with angiogenesis by targeting growth factor-induced signaling cascades and associated processes. […] The obtained KD value lies within the range of the concentrations that were applied in the different in vivo and in vitro assays reported here. FGF-2-mediated proliferation, chemotaxis and sprouting in vitro was diminished by CXCL9(74-103). Also in vivo, CXCL9(74-103) treatment attenuated FGF-2-mediated neovascularization in the Matrigel plug assay. The inhibitory mechanism responsible for countering FGF-2 could be that (1) by direct interaction with FGF-2, CXCL9(74-103) can t ...

For KKVLKVRKSQRSRQKKTT [CXCL9(86-103)], the “inhibition of VEGF165 binding to HS” value ([1]; 30-fold molar excess of peptide over VEGF165) was “≈ 20%”, the “inhibition of VEGF165 binding to HS” value ([1]; 300-fold molar excess of peptide over VEGF165) was 40% and the “VEGF165-induced endothelial cell adhesion” value [2] was “No effect on VEGF-induced adhesion”. For the same sequence, the EGF-induced proliferation ([3]; EGF 5 ng/mL) was “could not significantly alter”, the FGF-2-induced proliferation ([3]; FGF-2 3 ng/mL) was “significantly attenuated” and the VEGF165-induced proliferation ([3]; VEGF165 5 ng/mL) was “could not significantly alter”. For the same sequence, the Kd [4] was 820 nM.
